Values joined by “and” are separate entries in the source; they are usually repeats but may differ in a detail not shown here. Equal entries are not always repeated.
Experiments:
[1] = test system: SDH B_H267N (strain Cbx96); assay: in vitro succinate: Q0/DCPIP activity test, purified mitochondria; type: biochemical, Mycosphaerella graminicola; conditions: ratio IC50mutant/IC50WT, single determination
Experimental: (§1) To explore the sensitivity profiles conferred by amino acid substitutions at the cellular and mitochondrial level, we determined sensitivity towards 4 different compounds for 26 of the identified substitution types both in vivo using liquid culture growth (AE media) and in vitro using purified mitochondria and the succinate: Q0/DCPIP activity test (Table 3). […] Resistance factors (RF) were determined as the ratio IC50mutant/IC50WT. […] Qp site mutations are well known to influence SDH enzyme activity and stability upon catalysis, [13], [38], [41].
(§2) Strains were grown in 1 liter TSM40 units. Cultures were inoculated at 0.05 OD600 nm and grown on a reciprocal shaker (110 rpm, 22°C) for 5 days. Cells were harvested by vacuum filtration and disrupted in liquid nitrogen using a mortar and pestle. Resultant powder was re-suspended to 10% w/v in mitochondrial extraction buffer (10 mM KHPO4 pH7.2; 10 mM KCl, 10 mM MgCl2, 0.5 M sucrose, 0.2 mM EDTA, 2 mM PMSF). Extract was clarified by centrifugation (5,000 g, 4°C for 10 minutes, 2 times), intact mitochondria were then pelleted at 10,000 g for 20 minutes at 4°C. […] This volume was transferred to conical 1.5 ml tubes and re-centrifuged, 10,000 g for 10 minutes at 4°C. […] Mitochondrial suspensions were brought to a final concentration of 10 mg ml^−1 in extraction buffer and stored at −80°C until used.
(§3) Mitochondrial suspensions were incubated at 30°C for 30 minutes in extraction buffer supplemented with 10 mM succinate prior to enzymatic measurements.
(§4) A reaction plate was equilibrated for 10 minutes at 30°C before starting the reaction. DCPIP reduction was conducted at 30°C and monitored at 595 nm using a HTS7000 microtiterplate reader (Perkin Elmer). For calculations a molecular extinction coefficient of ε = 17 mM^−1 cm^−1 was used.
(§5) Inhibitor concentrations ranged between 1 mM and 0.95 nM with uniform 4× dilution factor steps (11 inhibitor concentrations+DMSO control). 96 wells plates were pre equilibrated at reaction temperature (30°C) for 10 minutes before the reactions were started by the addition of 5 µl preactivated M. graminicola mitochondrial suspension. Calculated absorbance slopes (OD/hour) were used for IC50 calculations using Graphpad Prism 5.0 software non linear curve fitting against log inhibitor concentrations.

[2] = test system: SDH B_I269V (strain Cbx1); assay: as above; type: biochemical, Mycosphaerella graminicola; conditions: ratio IC50mutant/IC50WT, single determination
Experimental: as §1, §2, §3, §4, §5

[3] = test system: SDH C_L85P (strain Cbx12); assay: as above; type: biochemical, Mycosphaerella graminicola; conditions: ratio IC50mutant/IC50WT, single determination
Experimental: as §1, §2, §3, §4, §5

[4] = test system: SDH C_H152R (strain Izm1); assay: as above; type: biochemical, Mycosphaerella graminicola; conditions: ratio IC50mutant/IC50WT, single determination
Experimental: as §1, §2, §3, §4, §5

SDH C_N86K (strain Izm7) = assay: as above; type: biochemical, Mycosphaerella graminicola; conditions: ratio IC50mutant/IC50WT, single determination
Experimental: as §1, §2, §3, §4, §5

[5] = test system: SDH B_P220L (strain Flu75); assay: as above; type: biochemical, Mycosphaerella graminicola; conditions: ratio IC50mutant/IC50WT, single determination
Experimental: as §1, §2, §3, §4, §5

[6] = test system: SDH C_T79I (strain Bos64); assay: as above; type: biochemical, Mycosphaerella graminicola; conditions: ratio IC50mutant/IC50WT, single determination
Experimental: as §1, §2, §3, §4, §5

[7] = test system: SDH B_R265P (strain Cbx56); assay: as above; type: biochemical, Mycosphaerella graminicola; conditions: ratio IC50mutant/IC50WT, single determination
Experimental: as §1, §2, §3, §4, §5

[8] = test system: SDH B_N225H (strain Cbx106); assay: as above; type: biochemical, Mycosphaerella graminicola; conditions: ratio IC50mutant/IC50WT, single determination
Experimental: as §1, §2, §3, §4, §5

SDH C_V88D (strain Ol50) = assay: as above; type: biochemical, Mycosphaerella graminicola; conditions: ratio IC50mutant/IC50WT, single determination
Experimental: as §1, §2, §3, §4, §5

[9] = test system: SDH D_D129E (strain Cbx22); assay: as above; type: biochemical, Mycosphaerella graminicola; conditions: ratio IC50mutant/IC50WT, single determination
Experimental: as §1, §2, §3, §4, §5

[10] = test system: SDH D_D129S (strain Cbx101); assay: as above; type: biochemical, Mycosphaerella graminicola; conditions: ratio IC50mutant/IC50WT, single determination
Experimental: as §1, §2, §3, §4, §5

[11] = test system: SDH D_D129T (strain Flu29); assay: as above; type: biochemical, Mycosphaerella graminicola; conditions: ratio IC50mutant/IC50WT, single determination, FR** (full resistance) = no sufficient inhibition detected at highest inhibitor concentration tested
Experimental: as §1, §2, §3, §4, §5

[12] = test system: SDH D_D129G (strain Cbx67); assay: as above; type: biochemical, Mycosphaerella graminicola; conditions: ratio IC50mutant/IC50WT, single determination
Experimental: as §1, §2, §3, §4, §5

[13] = test system: SDH B_N225I (strain Flu7); assay: as above; type: biochemical, Mycosphaerella graminicola; conditions: ratio IC50mutant/IC50WT, single determination
Experimental: as §1, §2, §3, §4, §5

[14] = test system: SDH B_S218F (strain Flu41); assay: as above; type: biochemical, Mycosphaerella graminicola; conditions: ratio IC50mutant/IC50WT, single determination
Experimental: as §1, §2, §3, §4, §5

[15] = test system: SDH B_N271K (strain Flu33); assay: as above; type: biochemical, Mycosphaerella graminicola; conditions: ratio IC50mutant/IC50WT, single determination
Experimental: as §1, §2, §3, §4, §5

[16] = test system: SDH B_H267Q (strain Bos59); assay: as above; type: biochemical, Mycosphaerella graminicola; conditions: ratio IC50mutant/IC50WT, single determination
Experimental: as §1, §2, §3, §4, §5

[17] = test system: SDH B_H267L (strain Cbx29); assay: as above; type: biochemical, Mycosphaerella graminicola; conditions: ratio IC50mutant/IC50WT, single determination
Experimental: as §1, §2, §3, §4, §5

[18] = test system: SDH B_P220T (strain Flu110); assay: as above; type: biochemical, Mycosphaerella graminicola; conditions: ratio IC50mutant/IC50WT, single determination
Experimental: as §1, §2, §3, §4, §5

[19] = test system: SDH B_H267Y (strain Cbx28); assay: as above; type: biochemical, Mycosphaerella graminicola; conditions: ratio IC50mutant/IC50WT, single determination
Experimental: as §1, §2, §3, §4, §5

SDH C_S83G (strain Flu1) = assay: as above; type: biochemical, Mycosphaerella graminicola; conditions: ratio IC50mutant/IC50WT, single determination
Experimental: as §1, §2, §3, §4, §5

SDH C_A84V (strain Flu4) = assay: as above; type: biochemical, Mycosphaerella graminicola; conditions: ratio IC50mutant/IC50WT, single determination
Experimental: as §1, §2, §3, §4, §5

[20] = test system: SDH C_A84I (strain Flu21); assay: as above; type: biochemical, Mycosphaerella graminicola; conditions: ratio IC50mutant/IC50WT, single determination
Experimental: as §1, §2, §3, §4, §5

[21] = test system: M. graminicola isolate IPO323; assay: UV mutagenesis and selection of resistant colonies on carboxamide amended AE agar; type: cell-based, Mycosphaerella graminicola
Experimental: Selection plates were produced after adding 1% of a 100× DMSO solution of the active ingredients to pre-melted AE-agar.
Cells were harvested from 4 days old V8 agar plates and conidial cells were suspended in liquid AE. 10^7 cells were spread onto carboxamide amended AE agar plates and mutagenized using UV Stratalinker 2400 (Stratagene) with 75 mJ cm^−2 or 50 mJ cm^−2. […] Selection plates were incubated in the dark at 20°C for 14 days. Visible colonies were picked from the primary selection plate and re-grown on fresh selection media for 2 additional weeks under the same conditions.

For `CC(C)C1C2CCC1c1c(NC(=O)c3cn(C)nc3C(F)F)cccc12` (stereo not shown) [Isopyrazam], the “Resistance Factors (RFs) in vitro” value [1] was 11.1, the “Resistance Factors (RFs) in vitro” value [2] was 3.6 and the “Resistance Factors (RFs) in vitro” value [3] was 35.3. For the same compound, the “Resistance Factors (RFs) in vitro” value [4] was 95.0, the “Resistance Factors (RFs) in vitro” value (SDH C_N86K (strain Izm7)) was 849.9 and the “Resistance Factors (RFs) in vitro” value [5] was 1.2. The “Resistance Factors (RFs) in vitro” value [6] was 56.4, the “Resistance Factors (RFs) in vitro” value [7] was 88.3 and the “Resistance Factors (RFs) in vitro” value [8] was 15.7. The “Resistance Factors (RFs) in vitro” value (SDH C_V88D (strain Ol50)) was 140.4, the “Resistance Factors (RFs) in vitro” value [9] was 145.3 and the “Resistance Factors (RFs) in vitro” value [10] was 82.5. The “Resistance Factors (RFs) in vitro” value [11] was 4095 and 4095.5, the “Resistance Factors (RFs) in vitro” value [12] was 583.2 and the “Resistance Factors (RFs) in vitro” value [13] was 7.0. The “Resistance Factors (RFs) in vitro” value [14] was 18.2, the “Resistance Factors (RFs) in vitro” value [15] was 89.5 and the “Resistance Factors (RFs) in vitro” value [16] was 34.6. The “Resistance Factors (RFs) in vitro” value [17] was 3248.5, the “Resistance Factors (RFs) in vitro” value [18] was 1.8 and the “Resistance Factors (RFs) in vitro” value [19] was 142.6. The “Resistance Factors (RFs) in vitro” value (SDH C_S83G (strain Flu1)) was 38.6, the “Resistance Factors (RFs) in vitro” value (SDH C_A84V (strain Flu4)) was 3.1 and the “Resistance Factors (RFs) in vitro” value [20] was 8.1. The “Frequency (of resistance development)” value ([21]; selection at 5× MSC, UV treatment 50 mJ cm^−2) was 1.4E-07, the “Frequency (of resistance development)” value ([21]; selection at 5× MSC, UV treatment 75 mJ cm^−2) was 1.7E-07 and the “Frequency (of resistance development)” value ([21]; selection at MSC, UV treatment 50 mJ cm^−2) was 3.2E-07. The “Frequency (of resistance development)” value ([21]; selection at MSC, UV treatment 75 mJ cm^−2) was 4.1E-07.

From paper PMC3334918, “Mutagenesis and Functional Studies with Succinate Dehydrogenase Inhibitors in the Wheat Pathogen Mycosphaerella graminicola” (PLoS ONE, 2012)
